{
  "source": "patent US10813981B2",
  "about": "“Saposin B binds the lipofuscin bisretinoid A2E and prevents its enzymatic and photo degradation” (Syracuse University, priority 2017, dated 2020)",
  "key": {"[1]": {"molecular_target": "T1, SapB (Homo sapiens, UniProt P07602)", "T1 construct": "made in house; host or cells: E. coli", "T1 sequence (P07602 195-273 limits assumed)": "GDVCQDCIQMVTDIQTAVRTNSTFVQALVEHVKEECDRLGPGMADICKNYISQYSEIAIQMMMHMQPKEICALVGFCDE", "assay": "Fluorescence quenching titration of SapB with ligand (double logarithmic Stern-Volmer analysis)", "assay_type": "binding", "procedure": "A2E and SapB were prepared and purified according to literature reports. To determine the A2E/protein binding stoichiometry, a fluorescence titration was carried out by incrementally adding small amounts of A2E to a solution of SapB (FIG. 2). […] A double logarithmic plot of\nFluorescence quenching measurements were performed on a Varian Cary Eclipse fluorimeter equipped with a QNW Peltier temperature controller. The experiments were conducted at 25.00±0.01° C. in 50 mM phosphate buffer, pH 5.50 or 7.40 using 278 nm excitation wavelength for sapB emission spectra at 325 nm (FIG. 2) or 444 nm excitation for A2E emission at 602 nm (FIG. 3) with excitation and emission monochromators bandwidth of 5 nm each. The fluorescence quenching data were analyzed using OriginLab software version 8.\nThe interaction of SapB (prepared as described above) with a variety of ligands was followed by monitoring the quenching of the fluorescence intensities of the protein's tyrosine residues upon binding (FIG. 12 Panels a-f).\nFor each ligand tested 40 μM SapB in 50 mM phosphate buffer at pH 5.5 was titrated with ligand and quenching was monitored at the fluorescence maxima at 330 nm. […] All of the fluorescence data were analyzed by a double logarithmic Stern-Volmer plot, shown for all ligands, using the emission maxima to determine binding affinity, presented in Table 3, and using the following equation\nMaterials and Methods—Saposin B (SapB) was prepared and purified as described above. Briefly, SapB solutions in this study were prepared in 50 mM phosphate buffer, pH 5.5. […] Ligand solutions were prepared in 100% dimethylformamide (DMF) to a concentration of 2 mM, with the exception of hydoxychloroquine (HCQ), which was prepared in 50 mM phosphate buffer, pH 5.5. […] 4.2. Fluorescence Spectroscopy. Fluorescence quenching measurements were performed on a Varian Cary Eclipse fluorimeter equipped with a QNW Peltier temperature controller. The binding experiments were conducted at 25.00±0.01° C. in 50 mM phosphate buffer, pH 5.5, using 278 nm excitation wavelength for SapB emission spectra at 330 nm (FIG. 1a-f) with excitation and emission monochromators bandwidth of 5 nm each. Temperature sensitive binding experiments were performed between 20.00±0.01 and 40.00±0.01° C. using 278 nm excitation wavelength for SapB emission spectra at 331 nm, with excitation and emission monochromators bandwidth of 5 nm each. The fluorescence quenching data were analyzed using OriginLab software version 8."}, "[2]": {"assay": "Blue-light photo-degradation of A2E", "assay_type": "physicochemical", "conditions": "bound to SapB (2 sapB:1 A2E) versus free; 30 min, pH 5.5", "excerpt": "We screened A2E photostability to blue light, whether in its free form or complexed to SapB (2 sapB:1 A2E) (see supplementary materials for details) with and without 1% DMSO (a known facilitator of blue induced photobleaching). […] The fact that SapB might play a role in mitigating photo-bleaching and providing a source of subsequent fluorescence is an interesting possibility, particularly in light of recent studies by Yamamoto et al. showing that SapB could regulate CoQ10 movement/levels within HepG2 cells.\nIn order to further examine the protective effects of sapB towards A2E in terms of photooxidation, additional ultraviolet spectroscopy was performed on a Varian Cary 50B Spectrophotomer. The stock solutions were prepared as follows: SapB in 50 mM phosphate buffer, pH 5.5 and A2E in 100% methanol or 100% DMSO. The samples were exposed to blue light in five-minute increments and monitored after each exposure for a total of 30 min. The data was further analyzed with OriginLab software version 8. The final product was examined via mass spectroscopy to identify products as a result of blue light exposure. Evidence for photooxidized species are clearly indicated."}},
  "data": [
    {"smiles": "CC(C=CC1=C(C)CCCC1(C)C)=CC=CC(C)=Cc1cc(C=CC=C(C)C=CC2=C(C)CCCC2(C)C)cc[n+]1CCO", "note": "[A2E, N-retinylidene-N-retinylethanolamine]", "values": [
      {"measurement": "binding stoichiometry from double logarithmic plot", "setting": "[1]", "result": "~1", "unit": "A2E per SapB dimer"},
      {"measurement": "LogKA of binding by SapB", "setting": "[1]; 40 μM SapB, 50 mM phosphate buffer pH 5.5, average of three runs", "result": 4.680},
      {"measurement": "binding affinity (KA), A2E to SapB", "setting": "[1]; double logarithmic plot, 50 mM phosphate buffer pH 5.5, 25° C.", "result": "~4e+06", "unit": "M⁻¹"},
      {"measurement": "Kd", "setting": "[1]; read-out: KD, SapB binds A2E", "result": 25, "unit": "µM"},
      {"measurement": "binding stoichiometry, discontinuity of fluorescence quenching at 308 nm", "setting": "[1]; titration of SapB with A2E", "result": "~0.5", "unit": "A2E/protein"},
      {"measurement": "A2E degradation over time under blue light (decline in slopes)", "setting": "[2]", "result": "significantly reduced"}
    ]}
  ]
}
